Results reported in US20260226048A1, “MULTI-CYCLIC IRAK AND FLT3 INHIBITING COMPOUNDS AND USES THEREOF” (CHILDREN'S HOSPITAL MEDICAL CENTER, priority 2023, published 2026).

Experiments:
IRAK4 [1] = biological target: T1, IRAK4 (Homo sapiens, UniProt Q9NWZ3); experiment: Reaction Biology NanoBRET target engagement assay in HEK-293 cells, IRAK4; format: cell-based; conditions: live HEK-293 cells transfected with Kinase-NanoLuc fusion, 1 hour
T1 sequence (Q9NWZ3 1-460): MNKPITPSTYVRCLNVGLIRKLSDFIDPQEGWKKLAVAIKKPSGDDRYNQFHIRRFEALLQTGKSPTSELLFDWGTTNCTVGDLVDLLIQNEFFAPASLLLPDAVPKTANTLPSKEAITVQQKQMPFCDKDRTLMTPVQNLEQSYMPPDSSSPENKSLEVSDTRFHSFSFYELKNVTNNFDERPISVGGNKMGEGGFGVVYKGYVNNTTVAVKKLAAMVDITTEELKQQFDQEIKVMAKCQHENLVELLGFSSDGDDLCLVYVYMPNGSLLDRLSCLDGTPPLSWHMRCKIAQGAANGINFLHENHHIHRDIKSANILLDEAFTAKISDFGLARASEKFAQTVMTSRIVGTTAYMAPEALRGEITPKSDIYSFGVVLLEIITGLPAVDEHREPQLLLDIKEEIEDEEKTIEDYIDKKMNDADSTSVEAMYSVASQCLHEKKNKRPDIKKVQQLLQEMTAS
From the text: The NanoBRET assay measures kinase engagement in real time in the context of the intact cell. Unlike the previously described biochemical kinase assay methodology in Example 33, the NanoBRET assay measures the binding and activity characteristics under equilibrium conditions using full-length kinases in the presence of cellular concentrations of ATP in live, uncompromised cells. As such, the assay provides a more relevant assessment of kinase potency and selectivity that would be expected to be observed in the native cellular environment, where potency is often considerably lower than that observed in the isolated biochemical assays (Vasta, J. D. et al., (2018) Cell Chem. Biol. 25, 206-214). The assay uses a Kinase-NanoLuc® fusion vector expressing a kinase protein to which a luciferase tag has been added, a cell-permeant fluorescent NanoBRET™ tracer, a NanoLuc® substrate, and an extracellular NanoLuc® inhibitor. Upon expression of the luciferase-tagged kinase, cells will produce a strong BRET signal only in the presence of the NanoBRET™ tracer. The extracellular NanoLuc® inhibitor ensures that the BRET signal observed emanates only from live cells. Because the BRET signal has tight distance constraints, addition of the test compound will decrease the BRET signal if the compound competes with the NanoBRET™ tracer for binding to the kinase domain. Under the appropriate tracer conditions established by the manufacturer, quantitative intracellular affinity and relative potency can then be determined using Mass Action model equations.
HEK-293 cells were purchased from ATCC. FuGENEHD Transfection Reagent, Kinase-NanoLucfusion plasmids, Transfection Carrier DNA, NanoBRETTracers and dilution buffer, NanoBRETNano-Glo Substrate, Extracellular NanoLucInhibitor were obtained from Promega.
Assays were conducted following Promega assay protocol with some modifications. HEK-293 Cells were transiently transfected with Kinase-NanoLucFusion Vector DNA by FuGENEHD Transfection Reagent. Testing compounds were delivered into 384 well assay plate by Echo 550 (LabcyteInc, Sunnyvale, CA). Transfected cells were harvested and mixed with NanoBRETTracer Reagent and dispensed into 384 well plates and incubated at 37° C. in 5% C02 cell culture incubator for 1 hour. The NanoBRETNano-Glo Substrate plus Extracellular NanoLucInhibitor Solution were added into the wells of the assay plate and incubated for 2-3 minutes at room temperature. The donor emission wavelength (460 nm) and acceptor emission wavelength (600 nm) were measured in the EnVisionplate reader. The BRET Ratios were calculated. BRET Ratio=[(Acceptor sample÷Donor sample)−(Acceptor no-tracer control÷Donor no-tracer control)]. The IC50 values of compounds were calculated with Prism GraphPad program.
• 1). Cultivate HEK-293 cells (70-80% confluence) appropriately prior to assay. Trypsinize and collect HEK-293 cells. • 2). Prepare lipid: DNA complexes as follows: • a. Prepare a 10 μg/ml solution of DNA in Opti-MEM without serum that consists of the following ratios of carrier DNA and DNA encoding NanoLuc® fusion. 9.0 μg/mL of Transfection Carrier DNA, 1.0 μg/mL of NanoLuc fusion vector DNA and 1 mL of Opti-MEM without phenol red. Mix thoroughly. • b. Add 30 μl of FuGENE HD Transfection Reagent into each milliliter of DNA mixture to form lipid: DNA complex. • c. Mix by inversion 10 times. • d. Incubate at ambient temperature for 20 minutes to allow complexes to form. • 3). In a sterile, conical tube, mix 1 part of lipid:DNA complex with 20 parts of HEK-293 cells in suspension. Mix gently by inversion 5 times. • 4). Dispense cells+lipid:DNA complex into a sterile tissue culture dish and incubate for 22-24 hours.
Each test compound is delivered from the compound source plate to the wells of 384-well white NBS plate by Echo 550.
3. Preparation of Cells with NanoBRET™ Tracer Reagent • 1). […]

IRAK4 [2] = biological target: T1, IRAK4; experiment: RBC HotSpot Kinase Assay, IRAK4; format: biochemical; parameters: purchased Reaction Biology (RBC HotSpot); conditions: isolated kinase enzyme, 33P-ATP, P81 filter-binding
Method in brief: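 Radiometric filter-binding activity assay with isolated recombinant kinase (construct may be truncated or catalytic domain only) in 20 mM Hepes pH 7.5, 10 mM MgCl2, 1 mM EGTA, 2 mM DTT, 1% DMSO. Compound preincubated 20 min with kinase/substrate; reaction started with 33P-ATP, run 2 h at room temperature.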

| SMILES | IC50 (IRAK4 [1]) | IC50 (IRAK4 [2]) |
| --- | --- | --- |
| CC(O)(c1ccc2ncc(-c3ccnc(N[C@@H]4CCCNC4)n3)n2c1)C(F)(F)F (single isomer, unassigned) [Compound 22a] | < 0.5 nM | 3 nM |
| CC(O)(c1ccc2ncc(-c3ccnc(N[C@@H]4CCCNC4)n3)n2c1)C(F)(F)F (single isomer, unassigned) [Compound 23a] | < 0.5 nM | 0.8 nM |
| CC(O)(c1ccc2ncc(-c3ccnc(N[C@H]4CNCC[C@@H]4F)n3)n2c1)C(F)(F)F (single isomer, unassigned) [Compound 25a] | 2 nM | 2 nM |
| CC(O)(c1ccc2ncc(-c3cncc(N[C@@H]4CCCNC4)n3)n2c1)C(F)(F)F (single isomer, unassigned) [Compound 28a] | < 0.5 nM | 3 nM |
| CC(O)(c1ccc2ncc(-c3cncc(N[C@H]4CNCC[C@@H]4F)n3)n2c1)C(F)(F)F (single isomer, unassigned) [Compound 31a] | < 0.5 nM | 2 nM |
| COc1cc2ncc(-c3nc(N[C@H]4CNCC[C@@H]4F)ncc3F)n2nc1C1CC1 [Compound 1a, 4-(6-cyclopropyl-7-methoxyimidazo[1,2-b]pyridazin-3-yl)-5-fluoro-N-((3S,4S)-4-fluoropiperidin-3-yl)pyrimidin-2-amine] | < 0.5 nM | 0.9 nM |
| FC(F)COc1cc2ncc(-c3ccnc(N[C@H]4CNCC[C@@H]4F)n3)n2nc1C1CC1 [Compound 4a, 4-(6-cyclopropyl-7-(2,2-difluoroethoxy)imidazo[1,2-b]pyridazin-3-yl)-N-((3 S,4S)-4-fluoropiperidin-3-yl)pyrimidin-2-amine] | 0.8 nM | 1 nM |
| F[C@H]1CCNC[C@@H]1Nc1nccc(-c2cnc3cc(OC4CC4)c(C4CC4)nn23)n1 [Compound 12a, 4-(7-cyclopropoxy-6-cyclopropylimidazo[1,2-b]pyridazin-3-yl)-N-((3S,4S)-4-fluoropiperidin-3-yl)pyrimidin-2-amine] | < 0.5 nM | 6 nM |
| COc1cc2ncc(-c3nc(N[C@H]4CNCC[C@@H]4F)ncc3F)n2nc1C(C)(C)O [Compound 45a, 2-(3-(5-fluoro-2-(((3S,4S)-4-fluoropiperidin-3-yl)amino)pyrimidin-4-yl)-7-methoxyimidazo[1,2-b]pyridazin-6-yl)propan-2-ol] | 3 nM | 8 nM |
| CC(C)(O)c1ccc2ncc(-c3nc(N[C@H]4CNCC[C@@H]4F)ncc3F)n2c1 [Compound 46a, 2-(3-(5-fluoro-2-(((3S,4S)-4-fluoropiperidin-3-yl)amino)pyrimidin-4-yl)imidazo[1,2-a]pyridin-6-yl)propan-2-ol] | 4 nM | 2 nM |
| CC(C)(O)c1ccc2ncc(-c3nc(N[C@@H]4CCCNC4)ncc3F)n2c1 [Compound 48a, (R)-2-(3-(5-fluoro-2-(piperidin-3-ylamino)pyrimidin-4-yl)imidazo[1,2-a]pyridin-6-yl)propan-2-ol] | 5 nM | 5 nM |
| COc1cc2ncc(-c3nc(N[C@H]4CNCC[C@@H]4F)ncc3F)n2nc1C1CC(F)(F)C1 [Compound 49a, 4-(6-(3,3-difluorocyclobutyl)-7-methoxyimidazo[1,2-b]pyridazin-3-yl)-5-fluoro-N-((3S,4S)-4-fluoropiperidin-3-yl)pyrimidin-2-amine] | < 0.5 nM | 0.5 nM |
| COc1cc2ncc(-c3nc(N[C@@H]4CCCNC4)ncc3F)n2nc1C1CC2(CCC2)C1 [Compound 59a, (R)-5-fluoro-4-(7-methoxy-6-(spiro[3.3]heptan-2-yl)imidazo[1,2-b]pyridazin-3-yl)-N-(piperidin-3-yl)pyrimidin-2-amine] | – | 3 nM |
| COc1cc2ncc(-c3nc(N[C@H]4CNCC[C@@H]4F)ncc3F)n2nc1C1CC2(CCC2)C1 [Compound 60a, 5-fluoro-N-((3S,4S)-4-fluoropiperidin-3-yl)-4-(7-methoxy-6-(spiro[3.3]heptan-2-yl)imidazo[1,2-b]pyridazin-3-yl)pyrimidin-2-amine] | – | 8 nM |
| COc1cc2ncc(-c3ccnc(N[C@H]4CNCC[C@@H]4F)n3)n2nc1C1CCC1 [Compound 79a, 4-(6-cyclobutyl-7-methoxyimidazo[1,2-b]pyridazin-3-yl)-N-((3S,4S)-4-fluoropiperidin-3-yl)pyrimidin-2-amine] | < 0.5 nM | 2 nM |
| COc1cc2ncc(-c3nc(N[C@H]4CNCC[C@@H]4F)ncc3F)n2nc1C1COC1 [Compound 92a, 5-fluoro-N-((3S,4S)-4-fluoropiperidin-3-yl)-4-(7-methoxy-6-(oxetan-3-yl)imidazo[1,2-b]pyridazin-3-yl)pyrimidin-2-amine] | < 0.5 nM | < 0.5 nM |
| CC(C)(O)c1cn2c(-c3nc(N[C@H]4CNCC[C@@H]4F)ncc3F)cnc2cn1 [Compound 100a, 2-(3-(5-fluoro-2-(((3S,4S)-4-fluoropiperidin-3-yl)amino)pyrimidin-4-yl)imidazo[1,2-a]pyrazin-6-yl)propan-2-ol] | 8 nM | 2 nM |
| COc1cc2ncc(-c3nc(N[C@H]4CNC[C@@H]4F)ncc3F)n2nc1N1CCCS1(=O)=O [Compound 111a, 2-(3-(5-fluoro-2-(((3S,4S)-4-fluoropyrrolidin-3-yl)amino)pyrimidin-4-yl)-7-methoxyimidazo[1,2-b]pyridazin-6-yl)isothiazolidine 1,1-dioxide] | 34 nM | 3 nM |
| COc1cc2ncc(-c3nc(N[C@H]4CNCC[C@@H]4F)ncc3F)n2nc1N1CCCS1(=O)=O [Compound 112a, 2-(3-(5-fluoro-2-(((3S,4S)-4-fluoropiperidin-3-yl)amino)pyrimidin-4-yl)-7-methoxyimidazo[1,2-b]pyridazin-6-yl)isothiazolidine 1,1-dioxide] | < 0.5 nM | 3 nM |
